{"source": "patent US7544664B2", "about": "“Sequences facilitating penetration of a substance of interest” (priority 2003, dated 2009)", "key": {"[1]": {"test_system": "Candida parapsilosis (ATCC 22019)", "test": "In vitro antifungal activity MIC80 (NCCLS M27A)", "settings": "MIC80, 48 hours, 37° C.; DPV15-AmB and AmB in μg/ml of AmB active product"}, "[2]": {"settings": "literature (Tabosa Do Egito et al. 1996); cited from earlier work"}}}
{"smiles": "C[C@@H]1[C@H](O)[C@@H](C)/C=C/C=C/C=C/C=C/C=C/C=C/C=C/[C@H](O[C@@H]2O[C@H](C)[C@@H](O)[C@H](N)[C@@H]2O)C[C@@H]2O[C@](O)(C[C@@H](O)C[C@@H](O)[C@H](O)CC[C@@H](O)C[C@@H](O)CC(=O)O[C@H]1C)C[C@H](O)[C@H]2C(=O)O", "note": "[AmB, Amphotericin B]", "values": [{"measurement": "MIC", "setting": "[1]", "result": 0.25, "unit": "µg/mL"}, {"measurement": "MTD", "setting": "[2]", "result": 1, "unit": "mg/kg"}]}
